Measurements published in the supplement of paper PMC12076712.

Assays:
Test in all cases: pIC50, kinobeads binding competition
PIM1 = PIM1 (UniProt P11309); conditions: cell material: Lysate mix
Outline: (§1)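 pIC50 was obtained by fitting fold changes against vehicle to logistic dose-response curves with the R drc package, using biological duplicates. Kinobeads-bound proteins were digested and measured by TMT10 LC-MS/MS. Before this, either living Jurkat cells received nine compound concentrations (top 30 μM, 1:4 steps) for 60 min at 37 °C prior to lysis, or Jurkat lysate or a 1:1:1:1 HEK293/K-562/HepG2/placenta lysate mix received nine concentrations (top 30 μM, 1:5 steps) for 60 min at 4 °C.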

EPHB1 = target: T1, EPHB1 (UniProt P54762); conditions: cell material: Lysate mix
T1 sequence (whole entry): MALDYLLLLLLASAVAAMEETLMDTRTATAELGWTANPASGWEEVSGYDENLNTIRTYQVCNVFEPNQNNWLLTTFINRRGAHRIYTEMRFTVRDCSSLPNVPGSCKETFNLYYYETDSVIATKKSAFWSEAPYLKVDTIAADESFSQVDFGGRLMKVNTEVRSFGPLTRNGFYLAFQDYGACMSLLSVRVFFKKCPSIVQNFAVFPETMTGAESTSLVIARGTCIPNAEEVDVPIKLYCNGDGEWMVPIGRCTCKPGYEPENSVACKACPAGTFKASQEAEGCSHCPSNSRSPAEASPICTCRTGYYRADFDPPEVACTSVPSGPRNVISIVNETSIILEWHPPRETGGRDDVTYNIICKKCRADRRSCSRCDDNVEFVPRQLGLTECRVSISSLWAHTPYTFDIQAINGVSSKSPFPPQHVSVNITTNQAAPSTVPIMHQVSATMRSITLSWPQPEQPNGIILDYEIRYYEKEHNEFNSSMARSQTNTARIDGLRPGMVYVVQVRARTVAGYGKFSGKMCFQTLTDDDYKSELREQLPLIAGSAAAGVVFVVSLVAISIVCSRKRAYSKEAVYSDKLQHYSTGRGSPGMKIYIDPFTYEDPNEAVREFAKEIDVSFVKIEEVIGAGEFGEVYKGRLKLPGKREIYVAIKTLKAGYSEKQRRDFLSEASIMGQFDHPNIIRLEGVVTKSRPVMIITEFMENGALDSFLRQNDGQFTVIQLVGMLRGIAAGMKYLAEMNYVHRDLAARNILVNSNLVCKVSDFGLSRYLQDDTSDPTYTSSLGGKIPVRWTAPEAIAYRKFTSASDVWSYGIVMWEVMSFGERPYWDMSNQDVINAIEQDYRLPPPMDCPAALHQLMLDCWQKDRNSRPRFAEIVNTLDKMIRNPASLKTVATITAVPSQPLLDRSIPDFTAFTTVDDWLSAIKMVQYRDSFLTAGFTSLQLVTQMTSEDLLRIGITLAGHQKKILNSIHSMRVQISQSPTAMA
Outline: as §1

GAK = target: T2, GAK (UniProt O14976)
T2 sequence (whole entry): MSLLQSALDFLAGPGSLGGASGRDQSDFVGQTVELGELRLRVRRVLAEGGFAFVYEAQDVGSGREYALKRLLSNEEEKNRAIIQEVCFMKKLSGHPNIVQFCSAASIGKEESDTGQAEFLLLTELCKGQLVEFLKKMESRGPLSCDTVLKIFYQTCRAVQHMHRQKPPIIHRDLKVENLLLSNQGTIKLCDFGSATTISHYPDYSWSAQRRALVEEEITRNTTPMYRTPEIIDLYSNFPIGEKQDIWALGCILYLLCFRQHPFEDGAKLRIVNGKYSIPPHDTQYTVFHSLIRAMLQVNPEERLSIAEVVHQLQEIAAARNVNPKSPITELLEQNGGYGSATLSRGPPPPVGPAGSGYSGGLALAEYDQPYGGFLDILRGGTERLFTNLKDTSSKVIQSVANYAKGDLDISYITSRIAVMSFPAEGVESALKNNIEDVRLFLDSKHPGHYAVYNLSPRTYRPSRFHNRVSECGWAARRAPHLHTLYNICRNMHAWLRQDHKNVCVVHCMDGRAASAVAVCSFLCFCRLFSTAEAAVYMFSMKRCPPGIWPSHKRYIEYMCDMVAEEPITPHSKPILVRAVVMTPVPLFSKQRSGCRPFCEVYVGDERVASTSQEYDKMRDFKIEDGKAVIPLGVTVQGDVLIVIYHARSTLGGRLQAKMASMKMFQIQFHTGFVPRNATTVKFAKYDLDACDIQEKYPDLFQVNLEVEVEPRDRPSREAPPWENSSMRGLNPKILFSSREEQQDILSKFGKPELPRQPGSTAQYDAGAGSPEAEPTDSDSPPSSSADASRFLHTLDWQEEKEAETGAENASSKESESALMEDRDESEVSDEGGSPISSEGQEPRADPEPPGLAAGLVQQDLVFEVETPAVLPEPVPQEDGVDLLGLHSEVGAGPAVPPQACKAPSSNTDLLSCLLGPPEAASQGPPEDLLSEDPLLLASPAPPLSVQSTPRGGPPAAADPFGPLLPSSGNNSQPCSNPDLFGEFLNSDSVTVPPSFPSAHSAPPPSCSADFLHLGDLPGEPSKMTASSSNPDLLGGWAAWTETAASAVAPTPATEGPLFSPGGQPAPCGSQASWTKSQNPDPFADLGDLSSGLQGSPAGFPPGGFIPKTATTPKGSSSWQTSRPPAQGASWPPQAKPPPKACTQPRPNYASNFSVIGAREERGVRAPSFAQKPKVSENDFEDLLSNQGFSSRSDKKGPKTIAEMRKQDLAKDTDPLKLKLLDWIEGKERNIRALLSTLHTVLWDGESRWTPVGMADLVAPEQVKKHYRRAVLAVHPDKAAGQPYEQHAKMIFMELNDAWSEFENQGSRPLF
Outline: as §1

FGR = FGR (UniProt P09769)
Outline: as §1

EPHA7 = EPHA7 (UniProt Q15375); conditions: cell material: Lysate mix
Outline: as §1

UniProt Q13164 = target: UniProt Q13164
Outline: as §1

MELK = MELK (UniProt Q14680)
Outline: as §1

ROCK1 = ROCK1 (UniProt Q13464)
Outline: as §1

UniProt P17612 = target: UniProt P17612
Outline: as §1

MAP4K5 = MAP4K5 (UniProt Q9Y4K4)
Outline: as §1

IGF1R = IGF1R (UniProt P08069)
Outline: as §1

Compound	pIC50 (PIM1)	pIC50 (EPHB1)	pIC50 (GAK; cell material: Jurkat cells)	pIC50 (GAK; cell material: Jurkat lysate)	pIC50 (GAK; cell material: Lysate mix)	pIC50 (FGR; cell material: Jurkat lysate)	pIC50 (FGR; cell material: Lysate mix)	pIC50 (EPHA7)	pIC50 (UniProt Q13164; cell material: Jurkat cells)	pIC50 (UniProt Q13164; cell material: Jurkat lysate)	pIC50 (UniProt Q13164; cell material: Lysate mix)	pIC50 (MELK; cell material: Jurkat cells)	pIC50 (MELK; cell material: Jurkat lysate)	pIC50 (MELK; cell material: Lysate mix)	pIC50 (ROCK1; cell material: Jurkat lysate)	pIC50 (ROCK1; cell material: Lysate mix)	pIC50 (UniProt P17612; cell material: Jurkat cells)	pIC50 (UniProt P17612; cell material: Jurkat lysate)	pIC50 (UniProt P17612; cell material: Lysate mix)	pIC50 (MAP4K5; cell material: Jurkat cells)	pIC50 (MAP4K5; cell material: Jurkat lysate)	pIC50 (MAP4K5; cell material: Lysate mix)	pIC50 (IGF1R; cell material: Jurkat lysate)	pIC50 (IGF1R; cell material: Lysate mix)	pIC50 (FGR; cell material: Jurkat cells)	pIC50 (ROCK1; cell material: Jurkat cells)	pIC50 (IGF1R; cell material: Jurkat cells)
C#CCNC(=O)c1cc(Nc2cc(C3CC3)[nH]n2)nc(N2CCN(Cc3ccc(S(=O)(=O)F)cc3)CC2)n1	< 4.52	< 4.52	< 4.52	< 4.52	< 4.52	5.6	6.2	< 4.52	5.69	< 4.52	5.14	< 4.52	< 4.52	< 4.52	< 4.52	< 4.52	< 4.52	< 4.52	< 4.52	6.45	5.53	6.21	< 4.52	< 4.52			
C#CCNC(=O)c1cc(Nc2cc(C)[nH]n2)nc(N2CCN(Cc3ccc(S(=O)(=O)F)cc3)CC2)n1	< 4.52	< 4.52			< 4.52		5.51	< 4.52			< 4.52			< 4.52		< 4.52			< 4.52			5.53		< 4.52			
Cc1cc(Nc2cc(C(=O)NCCNC(=O)OC3CC/C=C/CCC3)nc(N3CCN(Cc4ccc(S(=O)(=O)F)cc4)CC3)n2)n[nH]1 (centres undefined)	< 4.52	< 4.52			< 4.52		< 4.52	< 4.52			< 4.52			< 4.52		< 4.52			< 4.52			< 4.52		< 4.52			
O=C(NCCNC(=O)c1cc(Nc2cc(C3CC3)[nH]n2)nc(N2CCN(Cc3ccc(S(=O)(=O)F)cc3)CC2)n1)OC1CC/C=C/CCC1 (centres undefined)	< 4.52	< 4.52	< 4.52	< 4.52	< 4.52	< 4.52		< 4.52	4.92	< 4.52	< 4.52	< 4.52	< 4.52	< 4.52	< 4.52	< 4.52	< 4.52	< 4.52	< 4.52	5.8	< 4.52	< 4.52	< 4.52	< 4.52	5.92	< 4.52	< 4.52
CCNC(=O)c1cc(Nc2cc(C)[nH]n2)nc(N2CCN(Cc3ccc(S(=O)(=O)F)cc3)CC2)n1	< 4.52	< 4.52			< 4.52		5.92	< 4.52			4.6			< 4.52		< 4.52			< 4.52			5.33		< 4.52			
CCNC(=O)c1cc(Nc2cc(C3CC3)[nH]n2)nc(N2CCN(Cc3ccc(S(=O)(=O)F)cc3)CC2)n1	< 4.52	< 4.52			< 4.52		5.92	< 4.52			5.16			< 4.52		< 4.52			< 4.52			5.77		< 4.52			
